Measured values published in paper PMC12300041, “Tricyclic Isatin Derivatives as Anti-Inflammatory Compounds with High Kinase Binding Affinity” (Molecules, 2025).

How the values were obtained:
Assay in all cases: KINOMEscan
Type in all cases: binding
KIT (A829P) = target: T1, KIT (A829P) (Homo sapiens, UniProt P10721, A829P)
T1 construct: purchased Eurofins DiscoverX KINOMEscan
How it was run: (§1)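 Dissociation constants derive from a 12-point, half-log compound titration (highest 33 μM). Each binding reaction ran 1 h at room temperature before qPCR quantification of kinase captured on an immobilized affinity ligand.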

YANK3 = target: T2, YANK3 (Homo sapiens, UniProt Q86UX6)
T2 construct: purchased Eurofins DiscoverX KINOMEscan
How it was run: as §1

BUB1 = target: T3, BUB1 (Homo sapiens, UniProt O43683)
T3 construct: purchased Eurofins DiscoverX KINOMEscan
How it was run: (§2)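 Kd determination: 12-pt half-log series, top 33 μM; 1 h binding, RT; unbound kinase pulled down on immobilized ligand, measured by qPCR.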

MARK4 = target: T4, MARK4 (Homo sapiens, UniProt Q96L34)
T4 construct: purchased Eurofins DiscoverX KINOMEscan
How it was run: as §2

LIMK1 = target: T5, LIMK1 (Homo sapiens, UniProt P53667)
T5 construct: purchased Eurofins DiscoverX KINOMEscan
How it was run: as §1

CDK4-cyclinD3 = target: T6, CDK4-cyclinD3 (Homo sapiens, UniProt P11802)
T6 construct: purchased Eurofins DiscoverX KINOMEscan
How it was run: as §1

DLK = target: T7, DLK (Homo sapiens, UniProt Q12852)
T7 construct: purchased Eurofins DiscoverX KINOMEscan
How it was run: as §1

GRK2 = target: T8, GRK2 (Homo sapiens, UniProt P25098)
T8 construct: purchased Eurofins DiscoverX KINOMEscan
How it was run: as §1

FYN = target: T9, FYN (Homo sapiens, UniProt P06241)
T9 construct: purchased Eurofins DiscoverX KINOMEscan
How it was run: as §1

ERK4 = target: T10, ERK4 (Homo sapiens, UniProt P31152)
T10 construct: purchased Eurofins DiscoverX KINOMEscan
How it was run: as §2

PKN1 = target: T11, PKN1 (Homo sapiens, UniProt Q16512)
T11 construct: purchased Eurofins DiscoverX KINOMEscan
How it was run: as §1

[1] = target: T12, RPS6KA4 (Kin. Dom.1-N-term.) (Homo sapiens, UniProt O75676)
T12 construct: RPS6KA4 (Kin. Dom.1-N-term.); purchased Eurofins DiscoverX KINOMEscan
How it was run: as §2

DRAK2 = target: T13, DRAK2 (Homo sapiens, UniProt O94768)
T13 construct: purchased Eurofins DiscoverX KINOMEscan
How it was run: as §1

VEGFR2 = target: T14, VEGFR2 (Homo sapiens, UniProt P35968)
T14 construct: purchased Eurofins DiscoverX KINOMEscan
How it was run: as §2

PIK3CD = target: T15, PIK3CD (Homo sapiens, UniProt O00329)
T15 construct: purchased Eurofins DiscoverX KINOMEscan
How it was run: as §1

EGFR = target: T16, EGFR (Homo sapiens, UniProt P00533)
T16 construct: purchased Eurofins DiscoverX KINOMEscan
How it was run: as §1

ADCK3 = target: T17, ADCK3 (Homo sapiens, UniProt Q8NI60)
T17 construct: purchased Eurofins DiscoverX KINOMEscan
How it was run: as §2

CDK4-cyclinD1 = target: T18, CDK4-cyclinD1 (Homo sapiens, UniProt P11802)
T18 construct: purchased Eurofins DiscoverX KINOMEscan
How it was run: as §2

EPHA7 = target: T19, EPHA7 (Homo sapiens, UniProt Q15375)
T19 construct: purchased Eurofins DiscoverX KINOMEscan
How it was run: as §1

JNK2 = target: T20, JNK2 (Homo sapiens, UniProt P45984)
T20 construct: purchased Eurofins DiscoverX KINOMEscan
How it was run: as §1

PAK4 = target: T21, PAK4 (Homo sapiens, UniProt O96013)
T21 construct: purchased Eurofins DiscoverX KINOMEscan
How it was run: as §1

EPHB1 = target: T22, EPHB1 (Homo sapiens, UniProt P54762)
T22 construct: purchased Eurofins DiscoverX KINOMEscan
How it was run: as §2

FLT1 = target: T23, FLT1 (Homo sapiens, UniProt P17948)
T23 construct: purchased Eurofins DiscoverX KINOMEscan
How it was run: as §2

CDKL2 = target: T24, CDKL2 (Homo sapiens, UniProt Q92772)
T24 construct: purchased Eurofins DiscoverX KINOMEscan
How it was run: as §2

PIP5K1A = target: T25, PIP5K1A (Homo sapiens, UniProt Q99755)
T25 construct: purchased Eurofins DiscoverX KINOMEscan
How it was run: as §1

MYO3A = target: T26, MYO3A (Homo sapiens, UniProt Q8NEV4)
T26 construct: purchased Eurofins DiscoverX KINOMEscan
How it was run: as §1

TGFBR2 = target: T27, TGFBR2 (Homo sapiens, UniProt P37173)
T27 construct: purchased Eurofins DiscoverX KINOMEscan
How it was run: as §2

PHKG1 = target: T28, PHKG1 (Homo sapiens, UniProt Q16816)
T28 construct: purchased Eurofins DiscoverX KINOMEscan
How it was run: as §2

CSNK1G3 = target: T29, CSNK1G3 (Homo sapiens, UniProt Q9Y6M4)
T29 construct: purchased Eurofins DiscoverX KINOMEscan
How it was run: as §1

MARK1 = target: T30, MARK1 (Homo sapiens, UniProt Q9P0L2)
T30 construct: purchased Eurofins DiscoverX KINOMEscan
How it was run: as §1

CDKL5 = target: T31, CDKL5 (Homo sapiens, UniProt O76039)
T31 construct: purchased Eurofins DiscoverX KINOMEscan
How it was run: as §1

MUSK = target: T32, MUSK (Homo sapiens, UniProt O15146)
T32 construct: purchased Eurofins DiscoverX KINOMEscan
How it was run: as §1

DMPK2 = target: T33, DMPK2 (Homo sapiens, UniProt Q6DT37)
T33 construct: purchased Eurofins DiscoverX KINOMEscan
How it was run: as §1

DCAMKL2 = target: T34, DCAMKL2 (Homo sapiens, UniProt Q8N568)
T34 construct: purchased Eurofins DiscoverX KINOMEscan
How it was run: as §2

TSSK3 = target: T35, TSSK3 (Homo sapiens, UniProt Q96PN8)
T35 construct: purchased Eurofins DiscoverX KINOMEscan
How it was run: as §1

WNK3 = target: T36, WNK3 (Homo sapiens, UniProt Q9BYP7)
T36 construct: purchased Eurofins DiscoverX KINOMEscan
How it was run: as §1

CDKL3 = target: T37, CDKL3 (Homo sapiens, UniProt Q8IVW4)
T37 construct: purchased Eurofins DiscoverX KINOMEscan
How it was run: as §1

[2] = target: T38, RSK1 (Kin. Dom.2-C-term.) (Homo sapiens, UniProt Q15418)
T38 construct: RSK1 (Kin. Dom.2-C-term.); purchased Eurofins DiscoverX KINOMEscan
How it was run: as §1

PYK2 = target: T39, PYK2 (Homo sapiens, UniProt Q14289)
T39 construct: purchased Eurofins DiscoverX KINOMEscan
How it was run: as §1

T15 sequence (O00329 whole entry): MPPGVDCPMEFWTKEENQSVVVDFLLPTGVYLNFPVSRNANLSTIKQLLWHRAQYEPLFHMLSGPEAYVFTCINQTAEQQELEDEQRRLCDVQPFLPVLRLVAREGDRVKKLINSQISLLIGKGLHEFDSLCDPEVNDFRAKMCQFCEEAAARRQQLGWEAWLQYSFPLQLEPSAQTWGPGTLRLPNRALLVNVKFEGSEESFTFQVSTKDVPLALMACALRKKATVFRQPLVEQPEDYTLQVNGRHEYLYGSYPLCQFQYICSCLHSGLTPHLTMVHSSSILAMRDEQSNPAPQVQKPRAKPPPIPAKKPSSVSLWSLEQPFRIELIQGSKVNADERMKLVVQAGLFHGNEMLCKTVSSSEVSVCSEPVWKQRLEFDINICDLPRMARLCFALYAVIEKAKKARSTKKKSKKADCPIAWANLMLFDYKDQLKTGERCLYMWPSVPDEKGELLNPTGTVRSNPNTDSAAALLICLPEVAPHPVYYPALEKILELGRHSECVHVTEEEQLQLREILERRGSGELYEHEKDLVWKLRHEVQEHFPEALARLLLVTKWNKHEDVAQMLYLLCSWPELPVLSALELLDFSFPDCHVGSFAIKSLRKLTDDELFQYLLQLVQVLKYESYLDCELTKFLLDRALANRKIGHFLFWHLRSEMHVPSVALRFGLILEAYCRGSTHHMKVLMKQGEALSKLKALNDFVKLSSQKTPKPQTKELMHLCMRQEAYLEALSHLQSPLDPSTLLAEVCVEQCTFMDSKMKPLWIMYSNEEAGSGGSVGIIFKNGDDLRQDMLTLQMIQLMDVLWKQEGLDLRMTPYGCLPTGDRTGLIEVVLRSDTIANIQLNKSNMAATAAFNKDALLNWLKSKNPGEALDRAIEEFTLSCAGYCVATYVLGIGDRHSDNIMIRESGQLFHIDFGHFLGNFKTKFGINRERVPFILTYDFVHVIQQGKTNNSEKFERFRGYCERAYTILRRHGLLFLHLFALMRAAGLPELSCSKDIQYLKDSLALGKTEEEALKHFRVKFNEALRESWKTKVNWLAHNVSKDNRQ
T11 sequence (Q16512 whole entry): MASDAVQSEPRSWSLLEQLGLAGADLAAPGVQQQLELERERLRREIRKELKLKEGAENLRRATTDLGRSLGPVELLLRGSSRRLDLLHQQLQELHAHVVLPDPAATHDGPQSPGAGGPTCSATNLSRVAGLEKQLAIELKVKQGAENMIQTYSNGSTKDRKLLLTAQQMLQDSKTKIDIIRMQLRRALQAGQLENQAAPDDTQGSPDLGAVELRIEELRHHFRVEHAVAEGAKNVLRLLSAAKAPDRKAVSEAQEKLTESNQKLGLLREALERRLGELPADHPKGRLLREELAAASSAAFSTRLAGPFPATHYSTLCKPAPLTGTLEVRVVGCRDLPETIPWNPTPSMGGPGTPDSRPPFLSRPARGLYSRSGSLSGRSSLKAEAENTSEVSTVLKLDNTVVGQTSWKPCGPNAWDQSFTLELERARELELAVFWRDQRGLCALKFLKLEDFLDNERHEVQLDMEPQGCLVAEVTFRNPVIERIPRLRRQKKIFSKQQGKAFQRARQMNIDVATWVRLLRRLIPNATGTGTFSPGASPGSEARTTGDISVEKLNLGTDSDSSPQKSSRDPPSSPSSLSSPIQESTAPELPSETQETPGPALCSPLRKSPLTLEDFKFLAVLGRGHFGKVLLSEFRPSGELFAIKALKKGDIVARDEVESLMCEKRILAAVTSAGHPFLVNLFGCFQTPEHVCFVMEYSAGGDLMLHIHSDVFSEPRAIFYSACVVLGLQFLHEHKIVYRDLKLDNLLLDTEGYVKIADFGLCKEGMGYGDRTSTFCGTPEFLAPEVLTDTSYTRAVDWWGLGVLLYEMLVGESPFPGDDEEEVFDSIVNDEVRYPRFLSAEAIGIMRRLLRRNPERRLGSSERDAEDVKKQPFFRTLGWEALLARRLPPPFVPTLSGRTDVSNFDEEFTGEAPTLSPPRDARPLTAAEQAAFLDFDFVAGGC
T21 sequence (O96013 whole entry): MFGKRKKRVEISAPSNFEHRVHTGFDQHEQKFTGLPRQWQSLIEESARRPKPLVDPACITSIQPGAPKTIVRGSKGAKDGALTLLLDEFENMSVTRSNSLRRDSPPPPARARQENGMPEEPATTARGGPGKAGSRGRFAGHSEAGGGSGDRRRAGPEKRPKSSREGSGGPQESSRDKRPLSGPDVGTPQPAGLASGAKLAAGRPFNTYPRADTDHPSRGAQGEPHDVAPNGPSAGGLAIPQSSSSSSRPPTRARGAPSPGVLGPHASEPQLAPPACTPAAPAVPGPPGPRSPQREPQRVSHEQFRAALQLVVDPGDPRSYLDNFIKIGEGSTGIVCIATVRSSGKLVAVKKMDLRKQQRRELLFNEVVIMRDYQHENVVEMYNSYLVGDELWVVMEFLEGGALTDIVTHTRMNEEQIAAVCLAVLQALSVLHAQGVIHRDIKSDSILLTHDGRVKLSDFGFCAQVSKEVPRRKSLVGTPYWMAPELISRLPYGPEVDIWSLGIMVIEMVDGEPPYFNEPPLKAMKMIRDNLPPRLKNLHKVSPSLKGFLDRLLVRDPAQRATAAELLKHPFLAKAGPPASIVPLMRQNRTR
T38 sequence (Q15418 392-735 limits assumed): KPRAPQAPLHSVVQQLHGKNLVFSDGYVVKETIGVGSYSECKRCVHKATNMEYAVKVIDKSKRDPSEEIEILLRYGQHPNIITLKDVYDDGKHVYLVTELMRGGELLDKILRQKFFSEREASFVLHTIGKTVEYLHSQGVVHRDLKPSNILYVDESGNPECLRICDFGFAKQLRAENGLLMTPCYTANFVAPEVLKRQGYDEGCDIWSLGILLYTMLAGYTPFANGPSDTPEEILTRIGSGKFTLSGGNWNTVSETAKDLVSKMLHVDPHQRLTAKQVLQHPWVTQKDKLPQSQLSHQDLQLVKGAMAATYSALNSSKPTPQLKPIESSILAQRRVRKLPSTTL
T18 sequence (P11802 whole entry): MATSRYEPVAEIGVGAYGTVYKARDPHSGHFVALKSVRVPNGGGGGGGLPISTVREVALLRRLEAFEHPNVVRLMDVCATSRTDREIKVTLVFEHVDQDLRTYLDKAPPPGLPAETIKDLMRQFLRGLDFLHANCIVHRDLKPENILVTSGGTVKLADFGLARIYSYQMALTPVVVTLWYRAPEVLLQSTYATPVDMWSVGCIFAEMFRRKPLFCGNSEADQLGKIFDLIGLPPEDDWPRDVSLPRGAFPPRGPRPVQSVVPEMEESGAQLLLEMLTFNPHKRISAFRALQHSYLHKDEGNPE
T18 sequence (P24385 whole entry partner): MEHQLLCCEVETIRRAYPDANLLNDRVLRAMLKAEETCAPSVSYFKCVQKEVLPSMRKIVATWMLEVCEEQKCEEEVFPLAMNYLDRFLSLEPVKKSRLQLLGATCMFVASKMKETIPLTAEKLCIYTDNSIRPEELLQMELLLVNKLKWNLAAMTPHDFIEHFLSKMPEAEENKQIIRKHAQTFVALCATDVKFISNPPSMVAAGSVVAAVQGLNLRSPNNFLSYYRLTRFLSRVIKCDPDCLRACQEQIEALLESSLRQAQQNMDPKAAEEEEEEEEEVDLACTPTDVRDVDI
T6 sequence (P11802 whole entry): as the sequence (P11802 whole entry) above
T6 sequence (P30281 whole entry partner): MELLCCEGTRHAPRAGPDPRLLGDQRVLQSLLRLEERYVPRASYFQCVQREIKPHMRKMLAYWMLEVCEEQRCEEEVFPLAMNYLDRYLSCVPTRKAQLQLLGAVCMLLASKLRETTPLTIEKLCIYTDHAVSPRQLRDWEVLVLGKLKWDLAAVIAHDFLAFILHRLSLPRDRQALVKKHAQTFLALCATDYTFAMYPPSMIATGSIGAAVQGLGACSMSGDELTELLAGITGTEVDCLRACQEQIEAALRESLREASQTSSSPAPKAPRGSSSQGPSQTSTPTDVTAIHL
T10 sequence (P31152 whole entry): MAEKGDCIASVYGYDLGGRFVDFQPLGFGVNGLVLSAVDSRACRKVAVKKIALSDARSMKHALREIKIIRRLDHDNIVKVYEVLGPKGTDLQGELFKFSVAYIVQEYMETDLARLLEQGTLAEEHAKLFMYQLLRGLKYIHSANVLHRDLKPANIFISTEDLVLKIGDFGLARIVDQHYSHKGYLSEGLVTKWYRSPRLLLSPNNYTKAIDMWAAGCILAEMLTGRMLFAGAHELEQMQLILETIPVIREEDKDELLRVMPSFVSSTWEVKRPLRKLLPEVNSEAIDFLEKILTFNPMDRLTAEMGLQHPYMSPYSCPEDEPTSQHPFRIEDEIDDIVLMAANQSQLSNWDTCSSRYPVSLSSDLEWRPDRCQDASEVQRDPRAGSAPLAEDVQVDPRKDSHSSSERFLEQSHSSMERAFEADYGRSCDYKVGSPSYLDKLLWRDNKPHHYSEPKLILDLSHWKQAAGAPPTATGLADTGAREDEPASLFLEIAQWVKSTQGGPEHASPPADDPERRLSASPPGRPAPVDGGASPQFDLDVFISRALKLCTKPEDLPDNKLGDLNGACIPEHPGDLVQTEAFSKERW
T17 sequence (Q8NI60 163-647): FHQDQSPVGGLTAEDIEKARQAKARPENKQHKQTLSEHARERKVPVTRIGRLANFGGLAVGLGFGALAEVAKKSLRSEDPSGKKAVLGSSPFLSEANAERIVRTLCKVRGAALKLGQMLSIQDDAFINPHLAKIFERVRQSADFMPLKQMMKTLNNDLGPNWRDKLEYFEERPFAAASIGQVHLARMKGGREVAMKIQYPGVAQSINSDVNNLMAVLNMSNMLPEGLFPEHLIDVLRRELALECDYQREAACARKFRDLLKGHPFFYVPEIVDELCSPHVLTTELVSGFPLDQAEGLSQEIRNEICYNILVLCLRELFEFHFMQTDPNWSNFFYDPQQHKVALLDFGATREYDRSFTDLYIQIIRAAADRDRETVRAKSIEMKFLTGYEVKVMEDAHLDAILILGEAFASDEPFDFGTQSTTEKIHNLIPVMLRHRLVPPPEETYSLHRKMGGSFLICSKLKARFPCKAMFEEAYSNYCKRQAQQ

Question: For O=C1Nc2c(cc([N+](=O)[O-])c3c2CCCC3)C1=NO [Compound 5d, 3-(Hydroxyimino)-5-nitro-1,3,6,7,8,9-hexahydro-2H-benzo[g]indol-2-one], which inhibition at 10 µM (KIT (A829P)) is on record?
Answer: 0%

Question: And the inhibition at 10 µM (YANK3)?
Answer: 0%

Question: What about the inhibition at 10 µM (BUB1) of the same molecule?
Answer: 95.6%

Question: What about the inhibition at 10 µM (MARK4) of the same molecule?
Answer: 20%

Question: What about the inhibition at 10 µM (LIMK1) of the same molecule?
Answer: 0%

Question: What about the inhibition at 10 µM (CDK4-cyclinD3) of the same molecule?
Answer: 22%

Question: And the inhibition at 10 µM (DLK)?
Answer: 23%

Question: What about the inhibition at 10 µM (GRK2) of the same molecule?
Answer: 48%

Question: What about the inhibition at 10 µM (FYN) of the same molecule?
Answer: 0%

Question: And the inhibition at 10 µM (ERK4)?
Answer: 0%

Question: What about the inhibition at 10 µM (PKN1) of the same molecule?
Answer: 9%

Question: And the inhibition at 10 µM [1]?
Answer: 26%

Question: What about the inhibition at 10 µM (DRAK2) of the same molecule?
Answer: 78%

Question: What about the inhibition at 10 µM (VEGFR2) of the same molecule?
Answer: 39%

Question: What about the inhibition at 10 µM (PIK3CD) of the same molecule?
Answer: 42%

Question: And the inhibition at 10 µM (EGFR)?
Answer: 15%

Question: And the inhibition at 10 µM (ADCK3)?
Answer: 12%

Question: What about the inhibition at 10 µM (CDK4-cyclinD1) of the same molecule?
Answer: 9%

Question: And the inhibition at 10 µM (EPHA7)?
Answer: 9%

Question: What about the inhibition at 10 µM (JNK2) of the same molecule?
Answer: 49%

Question: And the inhibition at 10 µM (PAK4)?
Answer: 43%

Question: And the inhibition at 10 µM (EPHB1)?
Answer: 0%

Question: And the inhibition at 10 µM (FLT1)?
Answer: 12%

Question: What about the inhibition at 10 µM (CDKL2) of the same molecule?
Answer: 13%

Question: What about the inhibition at 10 µM (PIP5K1A) of the same molecule?
Answer: 54%

Question: And the inhibition at 10 µM (MYO3A)?
Answer: 51%

Question: What about the inhibition at 10 µM (TGFBR2) of the same molecule?
Answer: 24%

Question: What about the inhibition at 10 µM (PHKG1) of the same molecule?
Answer: 0%

Question: And the inhibition at 10 µM (CSNK1G3)?
Answer: 83%

Question: And the inhibition at 10 µM (MARK1)?
Answer: 24%

Question: And the inhibition at 10 µM (CDKL5)?
Answer: 0%

Question: What about the inhibition at 10 µM (MUSK) of the same molecule?
Answer: 0%

Question: What about the inhibition at 10 µM (DMPK2) of the same molecule?
Answer: 3%

Question: And the inhibition at 10 µM (DCAMKL2)?
Answer: 0%

Question: And the inhibition at 10 µM (TSSK3)?
Answer: 61%

Question: What about the inhibition at 10 µM (WNK3) of the same molecule?
Answer: 28%

Question: And the inhibition at 10 µM (CDKL3)?
Answer: 7%

Question: And the inhibition at 10 µM [2]?
Answer: 60%

Question: What about the inhibition at 10 µM (PYK2) of the same molecule?
Answer: 0%
